Results from ChEMBL document CHEMBL1201862, “PubChem BioAssay data set” (2004).
Calls of active or inactive are those of the source.

Experiments:
[1] = luciferase reporter signal reduction – luminescence, H4-C neuroglioblastoma cells, dose response (AID 2458); type: functional, cell-based;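 further: H4 neuroglioblastoma cells stably carrying a luciferase reporter gene fusion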
[2] = alpha-synuclein stem-loop translation blockers – luminescence, H4 neuroglioblastoma cells, dose confirmation, confirmation (AID 2454); type: functional, cell-based;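 further: H4 neuroglioblastoma cells carrying an alpha-synuclein 5'UTR luciferase reporter; potency for inhibition of the luciferase signal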
[3] = Luminescence Cell-Based Dose Response HTS to Identify Inhibitors of 5'UTR Stem-Loop Driven Prion Protein mRNA Translation in H4 Neuroglioblastoma Cells. [Related pubchem assays: 1827 (Project Summary), 1813 (Primary HTS)]; type: functional
[4] = alpha-synuclein stem-loop luciferase translation blockers – H4 neuroglioma cells, luminescence, confirmation (AID 1988); type: functional, cell-based
[5] = cells; type: functional, cell-based
[6] = HEK-293T viability loss after treatment – luminescence, T-cell screen hits, cytotoxicity control for TCR NF-kB inhibitor project, dose response (AID 489026); type: functional, cell-based;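 further: cells exposed to compound about 14 hours before the viability readout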
[7] = luciferase reporter signal suppression in cells – H4 neuroglioma cells, luminescence, dose response (AID 1990); type: functional, cell-based
[8] = cells; type: functional
[9] = THP-1 cell cytotoxicity, dose response, cytotoxicity control for non-replicating M. tuberculosis project (AID 489025); type: functional
[10] = Luminescence Cell-Based Dose Retest to Confirm Inhibitors of Cancer Stem Cells. [Related pubchem assays (depositor defined):AID2717, AID2721]; type: functional; details: Homo sapiens
[11] = HepG2 cell cytotoxicity, dose response, cytotoxicity control for non-replicating M. tuberculosis project (AID 489018); type: functional; details: Mycobacterium tuberculosis
[12] = viability loss in THP-1 monocytes – THP-1 cells, cytotoxicity control for Vif-APOBEC3G degradation inhibitor project, dose response (AID 1117359); type: functional; details: THP-1
[13] = DRD fibroblast viability loss – cell-based, non-viral oncogenic, luminescence, dose response (AID 1934); type: functional; details: Homo sapiens
[14] = system: BJ; assay: cells; type: functional, cell-based; details: Homo sapiens
[15] = system: BJ; assay: BJ-TERT-LT-ST fibroblast viability loss – cell-based, RAS-independent, luminescence, dose response (AID 1935); type: functional; details: Homo sapiens;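 further: BJ fibroblasts immortalized with TERT plus LT and ST oncogenes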
[16] = system: BJ; assay: BJ-TERT fibroblast viability loss – cell-based, RAS-independent, luminescence, dose response (AID 1933); type: functional; details: Homo sapiens
[17] = system: BJ; assay: growth inhibition of engineered Ras-driven BJ cells – cell-based, alamar blue fluorescence, cherrypicked samples, dose response (AID 2631); type: functional; details: Homo sapiens;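 further: confirmatory dose-response assay in RAS-dependent BJ fibroblasts engineered with TERT, LT and ST, with cytotoxicity read by fluorescence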
[18] = target: DNA dC->dU-editing enzyme APOBEC-3G (Homo sapiens, UniProt Q9HC16); assay: Dose Response confirmation of small molecule APOBEC3G DNA Deaminase Inhibitors via a fluorescence-based single-stranded DNA deaminase assay. [Related pubchem assays (depositor defined):AID493012, AID493028]; type: functional
[19] = system: INS1; assay: INS-1E survival protection against cytokine death – cell-based, luminescence, retest, dose response (AID 449756); type: functional; details: Rattus norvegicus;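 further: cell death triggered by IL-1 beta plus TNF-alpha plus IFN-gamma mixture; protective hits raise ATP signal compared with cytokine alone wells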
[20] = Vero E6 cell cytotoxicity, dose response, cytotoxicity control for non-replicating M. tuberculosis project, secondary assay (AID 492998); type: functional, VeroE6; details: Vero C1008
[21] = target: Disintegrin and metalloproteinase domain-containing protein 17 (Homo sapiens, UniProt P78536); assay: exosite inhibitors of ADAM17, dose response, biochemical (AID 743260)
[22] = inhibition of ADAM10 peptide cleavage – biochemical, FRET peptide substrate, recombinant human ADAM10, selectivity assay for ADAM17 exosite inhibitor project, dose response (AID 743259);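 further: ADAM10 enzyme cleaving a FRET peptide substrate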
[23] = target: T1, Rac GTPase-activating protein 1 (Homo sapiens, UniProt Q9H0H5); assay: blockers of MgcRacGAP-driven Rac1 GTP hydrolysis – biochemical, ADP Hunter fluorescence, primary and confirmatory, confirmation (AID 624330); type: functional
T1 sequence (Q9H0H5 whole entry): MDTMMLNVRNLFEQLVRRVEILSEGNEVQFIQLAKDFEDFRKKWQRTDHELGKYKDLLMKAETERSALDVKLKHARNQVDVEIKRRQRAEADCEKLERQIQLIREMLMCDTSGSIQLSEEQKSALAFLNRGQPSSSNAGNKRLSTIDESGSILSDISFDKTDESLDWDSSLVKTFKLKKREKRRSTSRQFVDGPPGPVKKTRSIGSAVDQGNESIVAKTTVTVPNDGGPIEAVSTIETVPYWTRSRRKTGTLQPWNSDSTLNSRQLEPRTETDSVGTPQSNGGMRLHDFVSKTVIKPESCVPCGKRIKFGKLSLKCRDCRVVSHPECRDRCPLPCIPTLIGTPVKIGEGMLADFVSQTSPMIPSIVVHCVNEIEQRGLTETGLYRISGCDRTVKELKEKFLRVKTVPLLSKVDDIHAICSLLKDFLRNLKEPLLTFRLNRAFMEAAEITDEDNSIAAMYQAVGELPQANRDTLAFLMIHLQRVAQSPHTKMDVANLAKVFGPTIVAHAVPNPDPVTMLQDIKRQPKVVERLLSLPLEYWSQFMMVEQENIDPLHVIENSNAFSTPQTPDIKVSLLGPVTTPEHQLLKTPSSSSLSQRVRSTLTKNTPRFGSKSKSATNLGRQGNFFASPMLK

[24] = viability of PTEN-deleted HCT116 cells – cell-based, HCT116 PTEN knockout, dose response (AID 1047); type: functional;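 further: HCT116 colon tumor cells with PTEN knocked out; cells exposed to compound for 60 hours before readout; potency for loss of cell viability measured by luminescence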
[25] = target: Paired box protein Pax-8 (Homo sapiens, UniProt Q06710); assay: PAX8 transcriptional activity inhibition in RMG-I – RMG-I cells, luciferase, cherry-pick, dose response (AID 687027); type: functional, cell-based;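 further: luciferase reporter driven by Pax8 target thyroperoxidase promoter measured by SteadyGlo luminescence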
[26] = non-specific 3'UTR reporter inhibition in Clone20-Shn3RL – cell-based, Renilla luciferase, cherry-picked, counter-screen for Shn3 inhibitor project, dose response (AID 624133); type: functional
[27] = loss of viability in HepG2 cells – cell-based, CellTiter-Glo, cherry-picked, cytotoxicity control for Shn3 inhibitor project, dose response (AID 624134); type: functional
[28] = reduction of Shn3 3'UTR-driven luciferase in osteoblasts – cell-based, Clone20 osteoblasts, firefly luciferase, cherry-picked, dose response (AID 624132); type: functional;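 further: firefly luciferase luminescence from reporter carrying the Shn3 3'UTR in osteoblasts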
[29] = viability of HCT116 lacking mutant beta-catenin – cell-based, human colon tumor, dose response (AID 1045); type: functional;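 further: HCT116 colon tumor cells with beta catenin knocked out; cells exposed to compound for 60 hours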
[30] = fluconazole-exposed Candida albicans growth modulators – fluorescence, retest, confirmation (AID 2467); type: functional, cell-based
[31] = NIH-3T3 fibroblast cytotoxicity, dose response, cytotoxicity control, cell-based, fluorescence, Alamar Blue, secondary assay (AID 2327); type: functional;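 further: NIH-3T3 mouse fibroblasts cultured with fluconazole at 8 µg/mL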
[32] = Luminescence Cell-Based Dose Response to Identify Activators of Luciferase Translation or Activity in H4-C Neuroglioblastoma Cells. [Related pubchem assays: 1829 (Project Summary), 1814 (Primary HTS)]; type: functional
[33] = Luminescence Cell-Based Dose Confirmation to Identify Activators of 5'UTR Stem-Loop Driven Alpha-Synuclein mRNA Translation in H4 Neuroglioblastoma Cells. [Related pubchem assays: 1829 (Project Summary), 1814 (Primary HTS)]; type: functional
[34] = Luminescence Cell-Based Dose Confirmation HTS to Identify Activators of 5'UTR Stem-Loop Driven Alpha-Synuclein mRNA Translation in H4 Neuroglioblastoma Cells. [Related pubchem assays: 1829 (Project Summary), 1814 (Primary HTS)]; type: functional
[35] = microbe, parasite or virus in culture; type: functional; details: Mycobacterium tuberculosis
[36] = Luminescence Cell-Based Dose Response to Identify Activators of 5'UTR Stem-Loop Driven Prion Protein mRNA Translation in H4-C Neuroglioblastoma Cells. [Related pubchem assays: 1829 (Project Summary), 1814 (Primary HTS)]; type: functional
[37] = system: H4; assay: Luminescence Cell-Based Dose Response HTS to Identify Activators of 5'UTR Stem-Loop Driven Prion Protein mRNA Translation in H4 Neuroglioblastoma Cells. [Related pubchem assays: 1829 (Project Summary), 1814 (Primary HTS)]; type: functional; details: Homo sapiens
[38] = target: Heat shock protein HSP 90-alpha (Homo sapiens, UniProt P07900); type: functional, organism-based
[39] = Luminescence Cell-Based Dose Response HTS to Identify Activators of Luciferase Translation or Activity in H4 […] Cells. [Related pubchem assays: 1829 (Project Summary), 1814 (Primary HTS)]; type: functional

Sequence of Disintegrin and metalloproteinase domain-containing protein 17 (P78536 whole entry, the tested form may be a part): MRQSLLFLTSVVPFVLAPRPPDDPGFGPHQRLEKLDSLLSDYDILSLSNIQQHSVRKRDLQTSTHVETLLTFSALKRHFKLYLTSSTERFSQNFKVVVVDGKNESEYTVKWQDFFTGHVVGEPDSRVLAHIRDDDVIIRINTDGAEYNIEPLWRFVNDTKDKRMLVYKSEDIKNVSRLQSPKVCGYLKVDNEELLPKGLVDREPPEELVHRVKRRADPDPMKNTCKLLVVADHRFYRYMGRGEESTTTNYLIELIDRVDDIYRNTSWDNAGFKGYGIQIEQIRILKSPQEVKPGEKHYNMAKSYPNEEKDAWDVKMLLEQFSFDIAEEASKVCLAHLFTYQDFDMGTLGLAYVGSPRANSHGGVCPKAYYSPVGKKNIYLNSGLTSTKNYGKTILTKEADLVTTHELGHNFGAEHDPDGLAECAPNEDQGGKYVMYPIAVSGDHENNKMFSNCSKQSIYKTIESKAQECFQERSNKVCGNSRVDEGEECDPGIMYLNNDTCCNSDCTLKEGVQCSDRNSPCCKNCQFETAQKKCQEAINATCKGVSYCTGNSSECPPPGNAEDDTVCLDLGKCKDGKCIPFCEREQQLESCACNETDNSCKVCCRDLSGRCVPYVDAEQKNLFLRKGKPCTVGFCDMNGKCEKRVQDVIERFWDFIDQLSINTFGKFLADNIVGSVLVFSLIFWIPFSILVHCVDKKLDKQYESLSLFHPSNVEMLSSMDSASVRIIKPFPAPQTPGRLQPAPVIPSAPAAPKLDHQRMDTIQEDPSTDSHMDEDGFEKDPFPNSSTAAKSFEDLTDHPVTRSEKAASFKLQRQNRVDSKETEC
Sequence of DNA dC->dU-editing enzyme APOBEC-3G (Q9HC16 whole entry): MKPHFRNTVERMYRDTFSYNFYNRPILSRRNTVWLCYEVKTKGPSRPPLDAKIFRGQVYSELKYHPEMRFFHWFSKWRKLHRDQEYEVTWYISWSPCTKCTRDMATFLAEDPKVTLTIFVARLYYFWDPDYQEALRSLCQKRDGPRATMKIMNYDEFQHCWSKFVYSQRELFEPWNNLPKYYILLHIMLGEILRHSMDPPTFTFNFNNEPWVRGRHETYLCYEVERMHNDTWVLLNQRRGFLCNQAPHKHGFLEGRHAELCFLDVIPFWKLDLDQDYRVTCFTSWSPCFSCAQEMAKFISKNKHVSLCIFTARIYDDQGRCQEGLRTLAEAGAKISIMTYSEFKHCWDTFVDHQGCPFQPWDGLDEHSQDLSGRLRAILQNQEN
Sequence of Paired box protein Pax-8 (Q06710 whole entry): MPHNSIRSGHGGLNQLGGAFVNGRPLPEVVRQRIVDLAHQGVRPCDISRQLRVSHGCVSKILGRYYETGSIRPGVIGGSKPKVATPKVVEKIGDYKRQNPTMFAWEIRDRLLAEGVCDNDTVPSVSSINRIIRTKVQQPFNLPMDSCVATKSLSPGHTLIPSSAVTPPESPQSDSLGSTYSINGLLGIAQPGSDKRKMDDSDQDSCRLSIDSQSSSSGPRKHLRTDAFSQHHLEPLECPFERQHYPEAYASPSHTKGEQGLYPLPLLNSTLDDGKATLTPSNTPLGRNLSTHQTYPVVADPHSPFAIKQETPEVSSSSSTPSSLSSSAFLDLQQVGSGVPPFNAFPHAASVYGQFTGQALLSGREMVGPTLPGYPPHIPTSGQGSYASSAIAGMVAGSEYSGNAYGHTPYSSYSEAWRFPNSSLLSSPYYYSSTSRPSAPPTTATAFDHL

## Cc1cc(NC(=O)CSc2nc3ccccc3c(=O)n2C2CCCC2)no1
[1]
  EC50: 1.5 µM (active)
[2]
  EC50: 1.89 µM (inconclusive)
[3]
  EC50: < 0.1 µM (active)
[4]
  EC50: < 0.1 µM (active)
[5]
  EC50: > 12 µM (not active)
[6]
  IC50: > 80 µM (inactive)
[7]
  EC50: 4.73 µM (inconclusive)

## CCC(C)NCCOc1ccc(C(C)(C)c2ccccc2)cc1 (stereo not given)
[8]
  IC50: 11.7 µM (active)
[9]
  CC50: 27.6 µM (active)
[10]
  AC50: 1.63 µM (active)
[11]
  CC50: 19.5 µM (active)

## O=C(CCCN1C(=O)/C(=C\c2ccco2)SC1=S)Nc1cccc2ccccc12
[12]
  CC50: 29 µM (active)

## CCOC(=O)c1c(NC(=O)CCN2CCOCC2)sc(C)c1-c1ccccc1
[12]
  CC50: > 40 µM (active)

## O=C(Nc1ccncc1)C1CCN(S(=O)(=O)c2c(Cl)cccc2Cl)CC1
[12]
  CC50: > 40 µM (active)

## COc1ccccc1N1CCN(C(=O)c2cc(=O)c3cc(C)cc(C)c3o2)CC1
[13]
  EC50: 0.375 µM (active)
[14]
  EC50: 0.938 µM (active)
[1]
  EC50: 0.289 µM (active)
[2]
  EC50: 0.259 µM (active)
[3]
  EC50: 0.127 µM (active)
[4]
  EC50: < 0.1 µM (active)
[15]
  EC50: 0.229 µM (inconclusive)
[5]
  EC50: 0.415 µM (active)
[16]
  EC50: 0.346 µM (active)
[6]
  IC50: > 80 µM (inactive)
[17]
  EC50: < 0.104 µM (active)
[7]
  EC50: 0.101 µM (active)

## O=C(Cc1ccc(Cl)cc1Cl)Nc1cccc(S(=O)(=O)Nc2ccccc2F)c1
[18]
  IC50: 29.4 µM (active)

## CCCCCn1c(=O)c(C(=O)Nc2nc3ccccc3[nH]2)c(O)c2ccccc21
[8]
  IC50: 7.7 µM (active)
[19]
  AC50: 6.54 µM (active)
[20]
  CC50: 6.21 µM (active)
[9]
  CC50: 6.69 µM (active)
[11]
  CC50: > 20 µM (active)

## COc1cc(/C=C(\C#N)c2ccccn2)ccc1OCc1ccccc1
[21]
  IC50: > 69.5 µM (inactive)
[22]
  IC50: > 69.5 µM (inactive)

## CC(C)Cn1c(-c2ccc(Br)o2)n[nH]c1=S
[18]
  IC50: 2.83 µM (active)
[23]
  IC50: 105 µM (active)

## Cc1cc(C2=NN=C(NC3CC3)SC2)c(C)n1-c1ccccc1F
[24]
  EC50: 17.1 µM (active)
[1]
  EC50: 0.005 µM (active)
[25]
  AC50: < 0.26 µM (active)
[2]
  EC50: 0.004 µM (active)
[26]
  AC50: 6.07 µM (active)
[3]
  EC50: < 0.1 µM (active)
[4]
  EC50: < 0.1 µM (active)
[27]
  AC50: 28 µM (active)
[28]
  AC50: < 0.26 µM (active)
[5]
  EC50: 0.016 µM (active)
[29]
  EC50: 16.7 µM (active)
[7]
  EC50: < 0.1 µM (active)

## CCCCN(CCCC)CCCN1CC(=O)N2[C@@H](Cc3c([nH]c4ccccc34)C2(C)C)C1=O
[12]
  CC50: > 40 µM (active)

## O=[N+]([O-])CC(c1ccccc1)P(=O)(c1ccccc1)c1ccccc1 (stereo not given)
[30]
  EC50: 5.58 µM (active)
[21]
  IC50: 10.9 µM (inactive)
[31]
  EC50: > 160 µM (inactive)
[22]
  IC50: > 69.5 µM (inactive)

## Cc1cc(-c2nnc(S)n2/N=C/C(Br)=C/c2ccccc2)[nH]n1
[32]
  EC50: 8.65 µM (active)
[8]
  IC50: 4.68 µM (active)
[33]
  EC50: 0.943 µM (active)
[24]
  EC50: 1.96 µM (active)
[34]
  EC50: 77.7 µM (active)
[35]
  CC50: 29.3 µM (active)
[25]
  AC50: 2.78 µM (active)
[36]
  EC50: > 12 µM (not active)
[19]
  AC50: > 60 µM (inactive)
[20]
  CC50: 9.01 µM (active)
[29]
  EC50: 1.52 µM (active)
[37]
  EC50: > 120 µM (not active)
[9]
  CC50: 11.1 µM (active)
[11]
  CC50: > 20 µM (active)
[38]
  AC50: 10.4 µM (active)
[39]
  EC50: < 0.1 µM (active)

## CCOc1ccc2[nH]c(C(=O)N/N=C/c3ccc(OC)cc3)cc2c1
[1]
  EC50: 1.12 µM (active)
[2]
  EC50: 3.25 µM (active)
[3]
  EC50: 0.273 µM (active)
[4]
  EC50: < 0.1 µM (active)
[5]
  EC50: 1.4 µM (active)
[7]
  EC50: 7.08 µM (active)

## CN(C)c1ccc2c(c1)OC(N)=C(C#N)C2c1cccc(F)c1 (stereo not given)
[1]
  EC50: 0.228 µM (active)
[2]
  EC50: 0.338 µM (active)
[3]
  EC50: < 0.1 µM (active)
[4]
  EC50: < 0.1 µM (active)
[5]
  EC50: 0.233 µM (active)
[6]
  IC50: 40.4 µM (inactive)
[7]
  EC50: < 0.1 µM (active)

## CCOc1ccc(-n2c(SCC(=O)Nc3cc(C)c(NC(=O)c4ccccc4)cc3OC)nnc2-c2cccs2)cc1
[21]
  IC50: > 69.5 µM (inactive)
[22]
  IC50: > 69.5 µM (inactive)

## Nc1[nH]c(C(=O)c2ccc(Br)cc2)c(-c2ccccn2)c1C(=O)NCCc1c[nH]c2ccccc12
[21]
  IC50: > 69.5 µM (inactive)
[22]
  IC50: 16.4 µM (inactive)

## Cc1cc(C)c([N+](=O)[O-])cc1-c1ccc(/C=N/c2c(-c3ccco3)nc3ccccn23)o1
[12]
  CC50: 31.6 µM (active)
[34]
  EC50: 8.26 µM (active)
[37]
  EC50: 14.8 µM (active)
[39]
  EC50: 12 µM (active)
